Entries after “also recorded” stand apart in the source; their conditions may differ.

Experimental findings from patent US11786494B2, “Methods of modulation of branched chain acids and uses thereof” (Baylor College of Medicine, priority 2009, dated 2023) are described below.

The test system of the test is plasma branched chain amino acids (BCAA) and branched chain ketoacids (BCKA). The test can be described thus: Clinical protocol: plasma BCAA and BCKA before and after sodium phenylbutyrate. Format: in vivo, human. Particulars: day 3 vs baseline, listed as sodium phenylbutyrate. The text has this: FIG. 1 is a graph representing levels of branched chain amino acids (BCAAs) in control subjects (N=3) at baseline and then after treatment with sodium phenylbutyrate (PBA). Abbreviations: Ile=Isoleucine; Leu=Leucine; Val=Valine. *: p<0.05. Values are average of three time points after two days of treatment. Study subjects received PBA at the dose of 10 gram/m^2/day divided in four equal doses every six hours for three days. The subjects received a constant protein intake of 0.6 grams/kg/day as a combination of BCAA-free formula and whole protein. Measurements were performed on day three at three different time points separated by 30 minutes in the fed state. Note that y-axis represents concentrations comparing baseline to three days of treatment.
FIG. 2 is a graph representing levels of branched chain ketoacids (BCKAs) in control subjects (N=3) at baseline and then after treatment with sodium phenylbutyrate. Abbreviations: KMV=α-keto-β-methylvalerate; KIC=α-ketoisocaproate; KIV=α-ketoisovalerate. *: p<0.05. Values are average of three time points after two days of treatment. Subjects were all on the same steady state protein intake for three days at testing. Study subjects received PBA at the dose of 10 gram/m^2/day divided in four equal doses every six hours for three days. The subjects received a constant protein intake of 0.6 grams/kg/day as a combination of BCAA-free formula and whole protein. Measurements were performed on day three at three different time points separated by 30 minutes in the fed state. Note that y-axis represents concentrations comparing baseline to three days of treatment.
FIG. 3 is a graph representing levels of branched chain amino acids (BCAAs) in MSUD patients (N=5) at baseline and then after treatment with sodium phenylbutyrate. Values are average of three time points after two days of treatment. Patients were all on steady state protein intake for three days at testing. Study subjects received PBA at the dose of 10 gram/m^2/day divided in four equal doses every six hours for three days. The subjects received a constant protein intake of 0.6 grams/kg/day as a combination of BCAA-free formula and whole protein. Measurements were performed on day three at three different time points separated by 30 minutes in the fed state. Abbreviations: Ile=Isoleucine; Leu=Leucine; Val=Valine. *: p<0.05. Note that y-axis represents concentrations comparing baseline to three days of treatment.
FIG. 4 is a graph representing levels of branched chain ketoacids (BCKAs) in MSUD patients (N=5) at baseline and then after treatment with sodium phenylbutyrate. Values are average of three time points after two days of treatment. Patients were all on steady state protein intake for three days at testing. […]

The mark [1] stands for this setting: MSUD patients (N=5), three of five responders, 10 gram/m^2/day.
Where [2] appears, read: healthy control subjects (N=3), 10 gram/m^2/day in four doses.

As for `O=C([O-])CCCc1ccccc1.[Na+]` [phenylbutyrate, sodium 4-phenylbutyrate], under setting [1], the “plasma BCAA levels” value is on record as “reduced; also recorded: decreased their BCAAs” and the “plasma BCKA levels” value is recorded as “significantly decreased; also recorded: decreased their BCKAs”. Moreover, under setting [2], the “plasma BCAA levels (isoleucine, leucine, valine)” value is listed as “reduced; also recorded: significantly decreased levels” and the “plasma BCKA levels (KMV, KIC, KIV)” value is reported as “reduced; also recorded: decreased their BCKAs”.
